How the values were obtained:
D(3) dopamine receptor = D(3) dopamine receptor (Homo sapiens, UniProt P35462); assay: Binding affinity against human Dopamine receptor D3 expressed in CHO cells by using [125I]iodosulpiride as radioligand; assay type: cell-based
D(2) dopamine receptor = D(2) dopamine receptor (Homo sapiens, UniProt P14416); assay: Binding affinity against human Dopamine receptor D2 expressed in CHO cells by using [125I]iodosulpiride as radioligand; assay type: cell-based
Chain of D(2) dopamine receptor (P14416 whole entry): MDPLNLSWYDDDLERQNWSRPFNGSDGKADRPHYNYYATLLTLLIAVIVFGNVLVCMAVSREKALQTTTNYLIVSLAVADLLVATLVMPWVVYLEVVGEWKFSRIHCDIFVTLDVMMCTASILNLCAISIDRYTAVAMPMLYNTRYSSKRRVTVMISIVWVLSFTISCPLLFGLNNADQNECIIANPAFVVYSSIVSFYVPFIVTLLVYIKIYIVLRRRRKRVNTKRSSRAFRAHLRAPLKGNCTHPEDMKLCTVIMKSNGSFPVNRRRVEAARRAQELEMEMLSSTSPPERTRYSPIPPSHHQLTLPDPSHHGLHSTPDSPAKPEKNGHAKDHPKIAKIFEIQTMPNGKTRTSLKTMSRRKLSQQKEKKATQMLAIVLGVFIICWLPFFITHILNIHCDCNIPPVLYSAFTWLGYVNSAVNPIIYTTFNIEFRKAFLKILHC

Chain of D(3) dopamine receptor (P35462 whole entry): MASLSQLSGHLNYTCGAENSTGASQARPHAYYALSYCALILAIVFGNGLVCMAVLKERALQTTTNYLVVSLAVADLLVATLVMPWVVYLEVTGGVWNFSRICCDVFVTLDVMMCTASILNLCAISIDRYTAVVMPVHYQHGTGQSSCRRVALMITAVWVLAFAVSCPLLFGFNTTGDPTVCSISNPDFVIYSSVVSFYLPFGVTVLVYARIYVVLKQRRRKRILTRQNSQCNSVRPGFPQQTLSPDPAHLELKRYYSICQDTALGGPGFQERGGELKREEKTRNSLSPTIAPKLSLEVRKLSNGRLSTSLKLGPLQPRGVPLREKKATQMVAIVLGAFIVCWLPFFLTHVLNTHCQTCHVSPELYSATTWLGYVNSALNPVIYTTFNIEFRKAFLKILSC

Row | Ki (D(3) dopamine receptor) [nM] | Ki (D(2) dopamine receptor) [nM] | Compound
1 | 2.51 | 398 | CS(=O)(=O)c1ccc2c(c1)CCN(CC[C@H]1CC[C@H](NC(=O)/C=C/c3c(F)cccc3F)CC1)CC2
2 | 2 | 251 | CS(=O)(=O)c1ccc2c(c1)CCN(CC[C@H]1CC[C@H](NC(=O)/C=C/c3cc(F)cc(F)c3)CC1)CC2
3 | 3.98 | 501 | Cc1cc(-c2cccc(C(=O)N[C@H]3CC[C@H](CCN4CCc5ccc(S(C)(=O)=O)cc5CC4)CC3)c2)on1
4 | 3.16 | 316 | Cc1cnc(-c2cccc(C(=O)N[C@H]3CC[C@H](CCN4CCc5ccc(OS(C)(=O)=O)cc5CC4)CC3)c2)o1
5 | 20 | 631 | Cc1cc(C(=O)N[C@H]2CC[C@H](CCN3CCc4ccc(OS(C)(=O)=O)cc4CC3)CC2)c2ccccc2n1
6 | 3.16 | 200 | Cc1coc(-c2cccc(C(=O)N[C@H]3CC[C@H](CCN4CCc5ccc(OS(C)(=O)=O)cc5CC4)CC3)c2)n1
7 | 2 | 158 | CS(=O)(=O)c1ccc2c(c1)CCN(CC[C@H]1CC[C@H](NC(=O)/C=C/c3cccc(C#N)c3)CC1)CC2
8 | 1 | 31.6 | COc1ccc(/C=C/C(=O)N[C@H]2CC[C@H](CCN3CCc4ccc(OS(C)(=O)=O)cc4CC3)CC2)cc1
9 | 2 | 158 | Cc1cc(-c2cccc(C(=O)N[C@H]3CC[C@H](CCN4CCc5ccc(OS(C)(=O)=O)cc5CC4)CC3)c2)on1
10 | 1.26 | 200 | Cc1ccc2c(C(=O)N[C@H]3CC[C@H](CCN4CCc5ccc(OS(C)(=O)=O)cc5CC4)CC3)cccc2n1
11 | 2 | 200 | CS(=O)(=O)Oc1ccc2c(c1)CCN(CC[C@H]1CC[C@H](NC(=O)c3cccc4ncccc34)CC1)CC2
12 | 1.26 | 100 | COc1ccccc1/C=C/C(=O)N[C@H]1CC[C@H](CCN2CCc3ccc(OS(C)(=O)=O)cc3CC2)CC1
13 | 1.26 | 126 | CS(=O)(=O)c1ccc2c(c1)CCN(CC[C@H]1CC[C@H](NC(=O)/C=C/c3ccccc3F)CC1)CC2
14 | 2 | 126 | CS(=O)(=O)c1ccc2c(c1)CCN(CC[C@H]1CC[C@H](NC(=O)/C=C/c3ccc(C#N)cc3)CC1)CC2
15 | 1.26 |  | CS(=O)(=O)Oc1ccc2c(c1)CCN(CC[C@H]1CC[C@H](NC(=O)/C=C/c3ccccc3F)CC1)CC2
16 | 3.16 | 251 | CS(=O)(=O)Oc1ccc2c(c1)CCN(CC[C@H]1CC[C@H](NC(=O)c3cccc(-n4cccc4)c3)CC1)CC2

Row | Ki (D(3) dopamine receptor) [nM] | Ki (D(2) dopamine receptor) [nM] | Compound
17 | 3.16 | 794 | Cc1ccc2c(C(=O)N[C@H]3CC[C@H](CCN4CCc5ccc(S(C)(=O)=O)cc5CC4)CC3)ccc(F)c2n1
18 | 3.98 | 316 | Cc1ccc2c(C(=O)N[C@H]3CC[C@H](CCN4CCc5ccc(S(C)(=O)=O)cc5CC4)CC3)cccc2n1
19 | 3.16 | 501 | Cn1nccc1-c1cccc(C(=O)N[C@H]2CC[C@H](CCN3CCc4ccc(S(C)(=O)=O)cc4CC3)CC2)c1
20 | 1.58 | 126 | CS(=O)(=O)c1ccc2c(c1)CCN(CC[C@H]1CC[C@H](NC(=O)/C=C/c3cccc(F)c3)CC1)CC2
21 | 6.31 | 631 | Cc1ncc(-c2cccc(C(=O)N[C@H]3CC[C@H](CCN4CCc5ccc(S(C)(=O)=O)cc5CC4)CC3)c2)o1
22 | 1 | 79.4 | CS(=O)(=O)c1ccc2c(c1)CCN(CC[C@H]1CC[C@H](NC(=O)/C=C/c3ccc(F)cc3)CC1)CC2
23 | 0.794 | 63.1 | CS(=O)(=O)Oc1ccc2c(c1)CCN(CC[C@H]1CC[C@H](NC(=O)/C=C/c3ccc(F)cc3)CC1)CC2
24 | 2.51 | 316 | CS(=O)(=O)Oc1ccc2c(c1)CCN(CC[C@H]1CC[C@H](NC(=O)c3cccc4ccccc34)CC1)CC2
25 | 2.51 | 200 | Cc1nc(-c2cccc(C(=O)N[C@H]3CC[C@H](CCN4CCc5ccc(OS(C)(=O)=O)cc5CC4)CC3)c2)no1
26 | 2 | 63.1 | COc1cccc(/C=C/C(=O)N[C@H]2CC[C@H](CCN3CCc4ccc(OS(C)(=O)=O)cc4CC3)CC2)c1
27 | 1.58 | 158 | CS(=O)(=O)c1ccc2c(c1)CCN(CC[C@H]1CC[C@H](NC(=O)/C=C/c3ccccc3C#N)CC1)CC2
28 | 7.94 | 631 | Cc1cnc(-c2cccc(C(=O)N[C@H]3CC[C@H](CCN4CCc5ccc(S(C)(=O)=O)cc5CC4)CC3)c2)o1
29 | 2 | 316 | CS(=O)(=O)Oc1ccc2c(c1)CCN(CC[C@H]1CC[C@H](NC(=O)c3cccc(-c4ncccn4)c3)CC1)CC2
30 | 1.26 |  | CS(=O)(=O)Oc1ccc2c(c1)CCN(CC[C@H]1CC[C@H](NC(=O)/C=C/c3cccc(F)c3)CC1)CC2
31 | 1.26 | 200 | Cc1ncc(-c2cccc(C(=O)N[C@H]3CC[C@H](CCN4CCc5ccc(OS(C)(=O)=O)cc5CC4)CC3)c2)o1
